In US20220218680A1, “TREATMENTS OF HEREDITARY ANGIOEDEMA” (KALVISTA PHARMACEUTICALS LIMITED, priority 2019, published 2022):
Each block holds one molecule with its values, some of them ahead of it.

What was measured:
[1] = background, literature and labels; cited from earlier work
Plasma Kallikrein = target: T1, Plasma Kallikrein (Homo sapiens, UniProt P03952); test: Phase 1 SAD / food effect: ex vivo PKa catalytic activity in DXS-stimulated undiluted plasma
T1 construct: PD measurements were determined in dextran sulfate (DXS) stimulated undiluted plasma using a fluorogenic enzyme assay; from tissue; host or cells: undiluted plasma of healthy male volunteers after oral dosing, stimulated ex vivo with dextran sulfate
T1 sequence (P03952 391-638 limits assumed): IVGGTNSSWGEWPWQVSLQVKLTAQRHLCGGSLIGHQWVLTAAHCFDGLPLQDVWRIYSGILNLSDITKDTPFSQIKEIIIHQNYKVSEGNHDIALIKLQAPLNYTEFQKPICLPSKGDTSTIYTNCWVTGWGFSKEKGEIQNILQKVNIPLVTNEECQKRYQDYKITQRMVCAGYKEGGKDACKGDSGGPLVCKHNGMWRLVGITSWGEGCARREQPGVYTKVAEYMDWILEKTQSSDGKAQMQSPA
T1 sequence (P03952 20-390 partner limits assumed): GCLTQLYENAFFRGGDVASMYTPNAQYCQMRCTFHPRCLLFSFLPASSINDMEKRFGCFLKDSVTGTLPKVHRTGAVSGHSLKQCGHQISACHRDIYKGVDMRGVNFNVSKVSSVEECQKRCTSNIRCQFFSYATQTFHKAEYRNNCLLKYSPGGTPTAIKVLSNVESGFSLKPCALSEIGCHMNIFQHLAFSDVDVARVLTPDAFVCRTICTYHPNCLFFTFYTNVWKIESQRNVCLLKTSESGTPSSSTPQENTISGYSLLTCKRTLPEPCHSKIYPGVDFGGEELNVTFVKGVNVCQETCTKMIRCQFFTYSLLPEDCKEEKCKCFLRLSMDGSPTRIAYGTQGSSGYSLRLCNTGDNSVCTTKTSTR
Description: (§1) PD measurements were determined in dextran sulfate (DXS) stimulated undiluted plasma using a fluorogenic enzyme assay and capillary based HK cleavage immunoassay.
The time until appearance of detectable amidolytic enzyme activity in DXS-stimulated plasma (lag time) was calculated from the catalytic activity assay. The detection sensitivity of the rate of catalytic activity in plasma based on using a Spark (Tecan) fluorimeter is a fluorescence increase to reach 1ΔF unit/sec.

[2] = system: HK cleavage by PKa in undiluted plasma; test: DXS-activated cleavage of HK in undiluted plasma (immunoblot); assay type: biochemical; settings: 300 nM PKa inhibitor, 20 min incubation with DXS
Description: DXS-activated cleavage of HK in undiluted plasma was performed in the absence or presence of 300 nM PKa inhibitor and quantified by SDS-PAGE gel electrophoresis, using 7.5% Criterion TGX Precast gels (Biorad). Transfer was made onto Immunobilon-FL PVDF membrane. Image analysis was done using the LICOR imaging system. Mouse monoclonal anti-HK antibody (MAB15692, R&D systems) was used for traditional immunoblotting. Data presented as % of HK remaining after 20 min incubation with DXS compared to HK levels in unactivated plasma (Table 1).

[3] = Phase 1 single ascending dose study: safety and tolerability; assay type: in vivo, human; settings: phase I trial, healthy males, 5-600 mg oral
From the text: (§2) This study was a randomized, double-blind, placebo-controlled single ascending dose (SAD) and crossover studies for food effect and capsule/tablet formulations.

[4] = Phase 1 single ascending dose study: plasma pharmacokinetics (LC MS/MS); assay type: in vivo, human; settings: oral capsule, fasted, 5 mg to 600 mg
Description: as §2
Samples for pharmacokinetic (PK) and PD assessment were taken at repeated intervals over 48 hours.
Plasma samples used for PK assessment were analysed using a validated liquid chromatography tandem mass spectrometry (LC MS/MS) method.

[5] = Phase 1 multiple dose study: safety, tolerability and ECG; assay type: in vivo, human; settings: 3 x 600 mg every 8, 4 or 2 hours, total 1800 mg, healthy adults
Description: This is a phase 1, double-blind, placebo-controlled, multiple-dose, multiple-cohort study to evaluate safety and tolerability of the compound as well as of the ECG effects of the compound formulated as 100 mg Film Coated Tablets in healthy adult male and female subjects.
During the study, oral doses of 600 mg of the compound as Film Coated Tablets (six 100 mg tablets) or 6 matching placebo tablets will be administered once every 8 hours (Cohort 1) every 4 hours (Cohort 2), or every 2 hours (Cohort 3 and 4) to healthy adult male and female subjects up to a total dose of 1800 mg. In Cohorts 1, 2 and 3, 6 subjects will receive the compound as 100 mg Film Coated Tablets and 2 subjects will receive the placebo for a total of 8 subjects per cohort. In Cohort 4, 12 subjects will receive the compound as 100 mg Film Coated Tablets and 6 subjects will receive the placebo for a total of 18 subjects.
A Holter monitor will be attached to each subject in order to continuously record ECGs. The monitor will be attached 1 hour before the first dose and will remain attached until after the final blood sample collection. The electrodes for the Holter monitor will be checked by a member of the clinic staff at appropriate intervals to ensure they are attached.

[6] = system: Factor XII (FXII) cleavage / FXIIa generation; test: Phase 1 SAD: ex vivo DXS-stimulated generation of FXIIa, Wes immunoassay; assay type: in vivo, human; settings: 600 mg oral capsules, up to 12 hrs post-dose
From the text: (§3) DXS-stimulated cleavage of plasma prekallikrein and Factor XII (FXII) were quantified by capillary-based immunoassay on the Wes System (ProteinSimple) analogously.

[7] = system: plasma prekallikrein (PPK) cleavage; test: Phase 1 SAD: ex vivo DXS-stimulated cleavage of plasma prekallikrein, Wes immunoassay; assay type: in vivo, human; settings: 600 mg oral capsules, up to 12 hrs post-dose
From the text: as §3

[8] = Phase 2 study Part 1: pharmacokinetics in HAE patients; assay type: in vivo; settings: human, plasma, 600 mg single oral dose, n = 27, preliminary, read-out: Cmax Mean (95% CI)
Description: In Part 1, subjects will receive a single oral dose of 600 mg of the compound to investigate the safety, PK and PD of the compound during the intercritical period between HAE attacks.
Part 1: Blood samples for PK and PD measurements will be collected at the following timepoints: Pre-dose (0 h), 15 min, 30 min, 45 min, 1 h, 1.5 h, 2 h, 3 h, and 4 h post-dose. Vital signs (systolic blood pressure [SBP], diastolic blood pressure [DBP], pulse rate [PR], respiratory rate [RR] and body temperature) will be measured at pre-dose (0 h), 1 h, and 4 h post-dose. Samples for post-treatment safety laboratory assessments will be taken with the 4 h PK/PD samples.
Non-compartmental PK parameters will include maximum concentration in plasma (Cmax), time to reach Cmax in plasma (tmax), and area under the curve from time 0 to last sample (AUC0-t). Compartmental PK modelling will describe the PK of the compound and generate underlying Cmax, tmax, AUC, apparent clearance (CL/F), apparent volume of distribution (Vd/F) and estimated terminal elimination half-life (t½).
The PK parameters of the compound will be determined from the individual concentration versus time data using Phoenix WinNonlin. In case of a deviation from the theoretical time, the actual time of blood sample will be used in the calculation of the derived PK parameters. […]

[9] = Plasma free fraction by Rapid Equilibrium Dialysis; assay type: in vitro ADME; settings: 5 μM in neat human plasma, dialysed 5 hrs at 37° C.
Description: Plasma free fraction was determined using “Rapid Equilibrium Dialysis” system (Thermo Scientific), test compounds were prepared at 5 μM in neat human plasma and dialysed against phosphate buffer for 5 hrs at 37° C. Quantification of the compound partitioned in two chambers of the dialysis device was performed via LCMS/MS. Fraction of compound unbound to plasma proteins presented as % of total.

[10] = system: HK cleavage by PKa in undiluted citrated human plasma; test: Protection of HK from PKa-mediated cleavage in DXS-stimulated HAE and control plasma (WES immunoassay); assay type: biochemical
Description: High molecular weight kininogen (HK) cleavage in undiluted citrated human plasma was induced by contact system activation with dextran sulfate (DXS, Sigma #31395-10G; 6.25 μg/ml) on wet ice. […] HAE plasma was obtained from HAE subjects (n=6) and C1-inhibitor deficiency was confirmed by western blotting. Protection of HK from PKa mediated cleavage in DXS-stimulated whole undiluted plasma was then determined by two methods; traditional western blotting and a semi-automated capillary-based immunoassay.
Preparation of samples: Combine one part 5× fluorescent master mix with four parts of the 1:200 plasma sample. Vortex to mix. Heat the samples+fluorescent master mix and the biotinylated ladder at 95° C. for 5 minutes, vortex, and load onto the WES plate. Monoclonal anti-human HK antibody was used for this chemiluminescence-based detection method using the Wes System (ProteinSimple).
Analysis: Collect the peak area measurement obtained in the Compass software (cbz file) for the full-length HK molecular weight of the respective time-point sample with DXS-induced activation. The peak area is defined as the area calculated for the spectral peak profile for HK. To measure the plasma kallikrein inhibition by the compound, the percent full-length HK detected was calculated.

HK cleavage = test: Phase 1 SAD: ex vivo DXS-stimulated HK cleavage, capillary-based immunoassay (Wes); assay type: in vivo, human
Description: as §1
DXS-stimulated cleavage of HK, in undiluted plasma was quantified by capillary-based immunoassay on the Wes System (ProteinSimple) using monoclonal anti-HK antibody and chemiluminescence-based detection. Plasma kallikrein mediated HK cleavage in undiluted citrated human plasma was induced by contact system activation with DXS (6.25 μg/ml) at 4° C. in selected samples from the SAD phase.

[11] = target: T2, Human plasma kallikrein (Protogen) (Homo sapiens, UniProt P03952); test: Plasma kallikrein inhibitory activity in vitro (purified enzyme, fluorogenic substrate); assay type: biochemical; settings: 25° C., substrate H-DPro-Phe-Arg-AFC
T2 construct: purchased Protogen
T2 sequence (P03952 391-638 limits assumed): as the sequence (P03952 391-638 limits assumed) above
T2 sequence (P03952 20-390 partner limits assumed): as the sequence (P03952 20-390 partner limits assumed) above
Description: Human plasma kallikrein (Protogen) was incubated at 25° C. with the fluorogenic substrate H-DPro-Phe-Arg-AFC and various concentrations of the test compound. Residual enzyme activity (initial rate of reaction) was determined by measuring the change in […] at 410 nm and the IC50 value for the test compound was determined.

[12] = target: T3, plasma kallikrein in pre-activated undiluted human plasma (Homo sapiens, UniProt P03952); test: Inhibition of enzyme activity of pre-activated undiluted plasma (compound added after DXS); assay type: biochemical; settings: added 3.5 minutes post DXS; compound 300, 1000, 3000 nM; C1-INH 3000 nM (FIG. 3B)
T3 construct: from tissue
T3 sequence (P03952 391-638 limits assumed): as the sequence (P03952 391-638 limits assumed) above
T3 sequence (P03952 20-390 partner limits assumed): as the sequence (P03952 20-390 partner limits assumed) above
Description: The ability of the compound to inhibit the enzyme activity of pre-activated plasma was assessed by addition of the compound after DXS stimulation. Aliquots of plasma (20 μL) were mixed with a 2.5 μL solution containing […] fluorogenic substrate (H-DPro-Phe-Arg-AFC) and a 2.5 μL solution of dextran sulphate (DXS; 100 μg/mL) which acted as an activator of the plasma kallikrein-kinin pathway. Enzyme activity was immediately measured by monitoring the accumulation of fluorescence liberated from the substrate by substrate cleavage over 16 minutes. At 3.5 minutes post DXS addition 5 μl of inhibitors or water control are were added into each well. The compound was tested at concentrations of 300, 1000 and 3000 nM. C1-INH at a concentration of 3000 nM and vehicle controls were also included.

purified PKa = purified PKa (Homo sapiens, UniProt P03952); test: Rate of formation of the enzyme-inhibitor complex (Kon); assay type: biochemical
Chain of purified PKa (P03952 391-638 limits assumed): as the sequence (P03952 391-638 limits assumed) above
Chain of purified PKa (P03952 20-390 partner limits assumed): as the sequence (P03952 20-390 partner limits assumed) above
Description: The rate of formation of the enzyme-inhibitor complex (Kon) was determined using purified PKa rapidly mixed with a solution containing fluorogenic substrate and a concentration range of inhibitor. The time-dependent establishment of inhibition was then used to calculate the rate of formation of the enzyme-inhibitor complex for each concentration of inhibitor. The Kon was calculated by plotting the rate of inhibition versus the inhibitor concentration. Data in Table 1 are presented in μM^−1 sec^−1.

[13] = target: PKa in DXS-activated plasma (Homo sapiens, UniProt P03952); test: Catalytic activity of PKa in dextran sulfate-activated plasma (inhibitor added before DXS); assay type: biochemical; settings: read-out: IC50 plasma enzyme
Chain of PKa in DXS-activated plasma (P03952 391-638 limits assumed): as the sequence (P03952 391-638 limits assumed) above
Chain of PKa in DXS-activated plasma (P03952 20-390 partner limits assumed): as the sequence (P03952 20-390 partner limits assumed) above
Description: Catalytic activity of PKa in dextran sulfate-activated (DXS, Sigma; 10 μg/ml) plasma (1:4 diluted or undiluted, VisuCon-F control plasma, Affinity Biologicals Inc) was determined by the time-dependent hydrolysis of fluorogenic substrate.

Molecule: N#Cc1cccc([C@@H](NCC2CC2)c2ccc(F)c(NC(=O)c3cc(C(F)(F)F)nn3-c3cccc(CN)c3)c2)c1 [Berotralstat, reference compound]
reported adverse reactions / risks [1]: more gastrointestinal adverse effects

food effect on the pharmacodynamic (PD) profile (Plasma Kallikrein; 600 mg tablet, fed vs fasted): no significant food-effect
plasma exposure [4]: rapid and dose-dependent plasma exposure
Cmax [8]: 5910 ng/mL
fraction unbound at 5 h, 5 μM [9]: 0.25
Molecule: COCc1nn(Cc2ccc(Cn3ccccc3=O)cc2)cc1C(=O)NCc1nccc(OC)c1F [compound of Formula A, N-[(3-fluoro-4-methoxypyridin-2-yl)methyl]-3-(methoxymethyl)-1-({4-[(2-oxopyridin-1-yl)methyl]phenyl}methyl)pyrazole-4-carboxamide]
lag time (time until appearance of catalytic activity during contact system activation) (Plasma Kallikrein; 600 mg dose, tablet formulation): increases the time until appearance of catalytic activity
HK protection (% of HK remaining vs unactivated plasma) [2]: 85%
serious adverse events [3]: No serious adverse events
tolerability [3]: no tolerability signals
effects on the studied ECG parameters [5]: No clinically relevant effects
serious adverse events [5]: No serious adverse events
severity of reported adverse events [5]: mild
effect on generation of FXIIa in DXS-activated plasma [6]: reduces the generation of FXIIa
effect on PPK cleavage in DXS-activated plasma [7]: reduces PPK cleavage
protection against HK cleavage ([10]; HAE plasma stimulated with dextran sulfate): dose dependent protection against HK cleavage
protection against HK cleavage ([10]; healthy control plasma stimulated with dextran sulfate): dose dependent protection against HK cleavage
effect on HK cleavage in DXS-activated plasma (HK cleavage; 600 mg oral capsules, up to 12 hrs post-dose): reduces HK cleavage
duration of protection of HK from DXS-activated cleavage in undiluted plasma (HK cleavage; single 600 mg dose): at least 10 hr

IC50 [11]: 50 nM
inhibition of enzyme activity after activation of plasma [12]: slower action
Kon (purified PKa): 40000 M⁻¹ s⁻¹
IC50 [13]: 1700 nM
Molecule: C1-INH: C1 inhibitor (Sigma Cat #E0518), used as a therapeutic benchmark for HAE [Compound C1-INH]

Molecule: Ecallantide
reported adverse reactions / risks [1]: risk of anaphylactic reactions

B1: lanadelumab: recombinant fully human IgG1 kappa light chain monoclonal antibody, active substance of Takhzyro (antibody, chains of the INN, looked up, V domains shown)
VH: EVQLLESGGGLVQPGGSLRLSCAASGFTFSHYIMMWVRQAPGKGLEWVSGIYSSGGITVYADSVKGRFTISRDNSKNTLYLQMNSLRAEDTAVYYCAYRRIGVPRRDEFDIWGQGTMVTVSS
VL: DIQMTQSPSTLSASVGDRVTITCRASQSISSWLAWYQQKPGKAPKLLIYKASTLESGVPSRFSGSGSGTEFTLTISSLQPDDFATYYCQQYNTYWTFGQGTKVEIK
reported adverse reactions / risks [1]: hypersensitivity, injection site pain, injection site erythema, and injection site bruising
